The target in one assay is T1, CCK receptor (Pancreas) (Rattus norvegicus, UniProt P30551).
T1 construct: The whole pancreas was dissected free of fat tissue and was homogenized; from tissue; host or cells: rat whole pancreas (male Sprague-Dawley), membrane homogenate
T1 sequence (P30551 1-444): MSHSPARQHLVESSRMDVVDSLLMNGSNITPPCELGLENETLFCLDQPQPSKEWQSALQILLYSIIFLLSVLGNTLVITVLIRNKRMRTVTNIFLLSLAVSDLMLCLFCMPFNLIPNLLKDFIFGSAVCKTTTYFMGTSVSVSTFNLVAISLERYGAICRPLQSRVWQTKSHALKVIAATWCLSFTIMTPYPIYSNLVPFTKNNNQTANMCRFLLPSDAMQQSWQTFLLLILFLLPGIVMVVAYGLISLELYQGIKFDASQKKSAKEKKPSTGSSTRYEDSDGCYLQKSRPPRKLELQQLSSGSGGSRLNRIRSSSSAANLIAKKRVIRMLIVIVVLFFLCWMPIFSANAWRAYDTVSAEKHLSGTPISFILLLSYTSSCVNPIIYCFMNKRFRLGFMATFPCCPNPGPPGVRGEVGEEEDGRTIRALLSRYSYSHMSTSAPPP
Put plainly: CCK Receptor Binding (Pancreas), displacement of 125I-CCK-8. Details: species or system rat (male Sprague-Dawley). The following applies: rat pancreas membranes, 125I-CCK-8 50 pM; for IC50: 25° C., 2 hours. The procedure:
CCK-8 sulphated was radiolabelled with ^125 I-Bolton Hunter reagent (2000 Ci/mmole). Receptor binding was performed according to Chang and Lotti (Proc. Natl. Acad. Sci. 83, 4923-4926, 1986) with minor modifications.
Male Sprague-Dawley rats (150-200 g) were sacrificed by decapitation. The whole pancreas was dissected free of fat tissue and was homogenized in 25 volumes of ice-cold 10 mM N-2-hydroxyethyl-piperazine-N'-2-ethane sulphonic acid (HEPES) buffer with 0.1% soya bean trypsin inhibitor (pH 7.4 at 25° C. ) with a Kinematica Polytron. The homogenates were centrifuged at 47,800 g for 10 min. Pellets were resuspended in 10 volumes of binding assay buffer (20mM (HEPES)), 1 mM ethylene glycol-bis-(β-aminoethylether-N,N'-tetraacetic acid) (EGTA), 5 mM MgCl2, 150 mM NaCl, bacitracin 0.25 mg/ml, soya bean trypsin inhibitor 0.1 mg/ml, and bovine serum albumin 2 mg/ml pH 6.5 at 25° C.) using a Teflon (trademark). homogenizer, 15 strokes at 500 rpm. The homogenate was further diluted in binding assay buffer to give a final concentration of 0.5 mg original wet weight/1 ml buffer. […] All assays were run in.duplicate. The reaction mixtures were incubated at 25° C. for 2 hours and the reaction terminated by rapid filtration (Brandell 24 well cell harvester) over Whatman GF/C filters, washing 3×4 mls with ice-cold 100 Mm NaCl. The radioactivity on the filters was counted with a LKB gamma counter.
(§1) Drug displacement studies were performed with at least 10 concentrations of compounds of Formula I and the IC50 values were determined by regression analysis IC50 refers to the concentration of the compound required to inhibit 50% of specific binding of ^125 I-CCK-8.
In general terms: Displacement assays read how much labelled ligand stays bound in the presence of the test substance.

In a further assay the target is T2, CCK receptor (Brain) (Cavia porcellus, UniProt H0VZC5).
T2 construct: the cortex was removed and homogenized in 25 mL ice-cold 0.32M sucrose; from tissue; host or cells: guinea pig cortex (male Hartley), P2 membrane pellet
T2 sequence (H0VZC5 1-426): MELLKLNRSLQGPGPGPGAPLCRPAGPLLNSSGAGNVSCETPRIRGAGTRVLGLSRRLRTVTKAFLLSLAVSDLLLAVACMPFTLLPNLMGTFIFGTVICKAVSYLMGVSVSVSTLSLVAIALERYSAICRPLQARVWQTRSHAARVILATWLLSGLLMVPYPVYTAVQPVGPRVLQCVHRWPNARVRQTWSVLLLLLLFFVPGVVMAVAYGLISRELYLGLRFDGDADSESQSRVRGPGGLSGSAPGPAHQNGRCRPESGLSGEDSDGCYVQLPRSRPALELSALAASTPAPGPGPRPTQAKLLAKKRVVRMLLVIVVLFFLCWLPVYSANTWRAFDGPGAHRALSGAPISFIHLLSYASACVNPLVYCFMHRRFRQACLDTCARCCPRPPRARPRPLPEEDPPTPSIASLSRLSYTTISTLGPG
Description: biochemical. The assay is classed as binding, guinea pig (male Hartley), cortex. The protocol: CCK-8 sulphated was radiolabelled and the binding was performed according to the description for the pancreas method with minor modifications.
Male Hartley guinea pigs (300-500 g) were sacrificed by decapitation and the cortex was removed and homogenized in 25 mL ice-cold 0.32M sucrose. The homogenates were centrifuged at 1000 g for 10 minutes and the resulting supernatant was recentrifuged at 20,000 g for 20 minutes. The P2 pellet was resuspended in binding assay buffer (20 mM HEPES, 5 mM MgCl2, 0.25 mg/ml bacitracin, 1 mM EGTA pH 6.5 at 25° C. ), using a Teflon (trademark) homogenizer (5 strokes at 500 rpm) to give a final concentration of 10 mg original wet weight/1.2 ml buffer. […] All assays were run in duplicate. The reaction mixtures were incubated at 25° C. for 2 hours and then the reaction was terminated by rapid filtration (Brandell 24 well cell harvester) on Whatman GF/C filters with 3×5 ml washes of cold 100 mM NaCl. The radioactivity on the filters was counted with a LKB gamma counter.
as §1

The next assay has as its target T3, Gastrin receptor (Cavia porcellus, UniProt H0VZC5).
T3 construct: from tissue; host or cells: guinea pig gastric mucosal glands (male Hartley), isolated with collagenase
T3 sequence (H0VZC5 1-426): T2 sequence (H0VZC5 1-426)
Description: Gastrin Receptor Binding in Guinea Pig Gastric Glands, displacement of 125I-gastrin. The settings on record: 125I-gastrin 0.1 nM, 25° C., 30 minutes. Details: species or system guinea pig (male Hartley). The protocol:
Gastrin antagonist activity of compounds of Formula I was determined using the following assay.
Guinea pig gastric mucosal glands were prepared by the procedure of Chang et. al., Science, 230, 177-179 (1985) with slight modifications. […] The tissues were passed twice through a 5 ml syringe to liberate the gastric glands, and then filtered through Nitex (trademark) #202 gauge nylon mesh. The filtered glands were centrifuged at 272 g for 5 minutes and washed twice by resuspension in 25 ml buffer and centrifugation.
The washed guinea pig gastric glands prepared as above were resuspended in 25 ml of standard buffer. For binding studies, to 250 μl of gastric glands, 30 μl of buffer (for total binding) or gastrin (3 μM final concentration, for nonspecific binding) or test compound and 20 μl of ^125 I-gastrin (NEN, 2200 Ci/mmole, 0.1 nM final concentration) were added. All assays were run in triplicate. […] The reaction mixtures, after incubation at 25° C. for 30 minutes in a shaking water bath were rapidly filtered (Brandell 24 well cell harvester) over Whatman G/F B filters presoaked in assay buffer and immediately washed further with 3×4 ml of 100 mM ice cold NaCl. The radioactivity on the filters was measured using a LKB gamma counter.

Where [1] appears, read: 125I-CCK-8 50 pM, guinea pig cortex membranes, 25° C., 2 hours, read-out: IC50, 125I-CCK Brain.

Data on 5 molecules can be found in patent US5360802A, “Benzodiazepine derivatives, compositions containing them and their use in therapy” (priority 1992, dated 1994).

Where two headings read alike, the source gives them in different places.

Turning to `CC(C)CN1C(=O)C(NC(=O)Nc2cccc(-c3nn[nH]n3)c2)N=C(C2CCCCC2)c2ccccc21` (racemic) [Example 2, N-[3(R,S)-5-Cyclohexyl-2,3-dihydro-1-(2-methylpropyl)-2-oxo-1H-1,4-benzodiazepin-3-yl] N'-[3-tetrazol-5-ylphenyl]urea], the “% (inhibition of 125I-CCK binding) Pancreas” value at CCK receptor (Pancreas) (at 3 μM) came to 27%.
As usually defined, the IC50 is the concentration that gives 50% inhibition. On to `CN1C(=O)C(NC(=O)Nc2cccc(S(=O)(=O)Nc3cnccn3)c2)N=C(C2CCCCC2)c2ccccc21` (racemic) [Example 22, N-[3(R,S)-5-Cyclohexyl-2,3-dihydro-1-methyl-2-oxo-1H-1,4-benzodiazepin-3-yl] N'-[3-(2-pyrazinylaminosulphonyl)phenyl]urea], for which the IC50 stood at 70 nM at CCK receptor (Pancreas) and 6.8 nM on CCK receptor (Brain) (setting [1]).
The matching figures for `CN1C(=O)C(NC(=O)Nc2cccc(C(=O)NS(=O)(=O)C(C)(C)C)c2)N=C(C2CCCCC2)c2ccccc21` (racemic) [Example 31, N-[3(R,S)-5-Cyclohexyl-2,3-dihydro-1-methyl-2-oxo-1H-1,4-benzodiazepin-3-yl]N'-[3-(1,1-dimethylethylsulphonylaminocarbonyl)phenyl]urea]: 6.2 nM and 0.22 nM.
On to `CN1C(=O)C(NC(=O)Nc2cccc(C(=O)NS(=O)(=O)C(C)(C)C)c2)N=C(C2CCCC2)c2ccccc21` (racemic) [Example 39, N-[3(R,S)-5-Cyclopentyl-2,3-dihydro-1-methyl-2-oxo-1H-1,4-benzodiazepin-3-yl]N'-[3-(1,1-dimethylethylsulphonylaminocarbonyl)phenylurea], for which the results for the IC50 at CCK receptor (Pancreas), at CCK receptor (Brain) (setting [1]) and on Gastrin receptor were 270 nM, 0.56 nM and 1.18 nM, respectively.
With `CN1C(=O)C(NC(=O)Nc2cccc([S+](C)[O-])c2)N=C(C2CCCCC2)c2ccccc21` (racemic) [Example 42, N-[3(R,S)-5-Cyclohexyl-2,3-dihydro-1-methyl-2-oxo-1H-1,4-benzodiazepin-3-yl]N'-[3(R,S)-(methylsulphinyl)phenyl]urea], the IC50 was determined as 18 nM on CCK receptor (Pancreas) and 15 nM against CCK receptor (Brain).
